Assay results as given in patent publication US8802700B2 (Vertex Pharmaceuticals Incorporated, priority 2010, dated 2014).

biological target: T1, ΔF508-CFTR (Homo sapiens, UniProt P13569, DEL508-508); test: Membrane potential optical assay (FRET voltage-sensor dyes, VIPR), identification of potentiator compounds; assay type: cell-based; conditions: Table 3; assay not given
T1 construct: expressed in transfected cells
Excerpt: The optical membrane potential assay utilized voltage-sensitive FRET sensors described by Gonzalez and Tsien (See Gonzalez, J. E. and R. Y. Tsien (1995) “Voltage sensing by fluorescence resonance energy transfer in single cells” Biophys J 69(4): 1272-80, and Gonzalez, J. E. and R. Y. Tsien (1997) “Improved indicators of cell membrane potential that use fluorescence resonance energy transfer” Chem Biol 4(4): 269-77) in combination with instrumentation for measuring fluorescence changes such as the Voltage/Ion Probe Reader (VIPR) (See […]. Oades, et al. (1999) “Cell-based assays and instrumentation for screening ion-channel targets” Drug Discov Today 4(9): 431-439). These voltage sensitive assays are based on the change in fluorescence resonant energy transfer (FRET) between the membrane-soluble, voltage-sensitive dye, DiSBAC2(3), and a fluorescent phospholipid, CC2-DMPE, which is attached to the outer leaflet of the plasma membrane and acts as a FRET donor. Changes in membrane potential (Vm) cause the negatively charged DiSBAC2(3) to redistribute across the plasma membrane and the amount of energy transfer from CC2-DMPE changes accordingly. The changes in fluorescence emission were monitored using VIPRTM II, which is an integrated liquid handler and fluorescent detector designed to conduct cell-based screens in 96- or 384-well microtiter plates. To identify potentiators of ΔF508-CFTR, a double-addition HTS assay format was developed. During the first addition, a Cl^--free medium with or without test compound was added to each well. […] (in mM) NaCl 160, KCl 4.5, CaCl2 2, MgCl2 1, HEPES 10, pH 7.4 with NaOH. • Chloride-free bath solution: Chloride salts in Bath Solution #1 are substituted with gluconate salts. • CC2-DMPE: Prepared as a 10 mM stock solution in DMSO and stored at -20° C. • DiSBAC2(3): Prepared as a 10 mM stock in DMSO and stored at -20° C. NIH3T3 mouse fibroblasts stably expressing ΔF508-CFTR are used for optical measurements of membrane potential. […] For all optical assays, the cells were seeded at 30,000/well in 384-well matrigel-coated plates and cultured for 2 hrs at 37° C. before culturing at 27° C. for 24 hrs. for the potentiator assay.

T1 sequence (P13569 with tags, fused parts or gaps DEL508-508): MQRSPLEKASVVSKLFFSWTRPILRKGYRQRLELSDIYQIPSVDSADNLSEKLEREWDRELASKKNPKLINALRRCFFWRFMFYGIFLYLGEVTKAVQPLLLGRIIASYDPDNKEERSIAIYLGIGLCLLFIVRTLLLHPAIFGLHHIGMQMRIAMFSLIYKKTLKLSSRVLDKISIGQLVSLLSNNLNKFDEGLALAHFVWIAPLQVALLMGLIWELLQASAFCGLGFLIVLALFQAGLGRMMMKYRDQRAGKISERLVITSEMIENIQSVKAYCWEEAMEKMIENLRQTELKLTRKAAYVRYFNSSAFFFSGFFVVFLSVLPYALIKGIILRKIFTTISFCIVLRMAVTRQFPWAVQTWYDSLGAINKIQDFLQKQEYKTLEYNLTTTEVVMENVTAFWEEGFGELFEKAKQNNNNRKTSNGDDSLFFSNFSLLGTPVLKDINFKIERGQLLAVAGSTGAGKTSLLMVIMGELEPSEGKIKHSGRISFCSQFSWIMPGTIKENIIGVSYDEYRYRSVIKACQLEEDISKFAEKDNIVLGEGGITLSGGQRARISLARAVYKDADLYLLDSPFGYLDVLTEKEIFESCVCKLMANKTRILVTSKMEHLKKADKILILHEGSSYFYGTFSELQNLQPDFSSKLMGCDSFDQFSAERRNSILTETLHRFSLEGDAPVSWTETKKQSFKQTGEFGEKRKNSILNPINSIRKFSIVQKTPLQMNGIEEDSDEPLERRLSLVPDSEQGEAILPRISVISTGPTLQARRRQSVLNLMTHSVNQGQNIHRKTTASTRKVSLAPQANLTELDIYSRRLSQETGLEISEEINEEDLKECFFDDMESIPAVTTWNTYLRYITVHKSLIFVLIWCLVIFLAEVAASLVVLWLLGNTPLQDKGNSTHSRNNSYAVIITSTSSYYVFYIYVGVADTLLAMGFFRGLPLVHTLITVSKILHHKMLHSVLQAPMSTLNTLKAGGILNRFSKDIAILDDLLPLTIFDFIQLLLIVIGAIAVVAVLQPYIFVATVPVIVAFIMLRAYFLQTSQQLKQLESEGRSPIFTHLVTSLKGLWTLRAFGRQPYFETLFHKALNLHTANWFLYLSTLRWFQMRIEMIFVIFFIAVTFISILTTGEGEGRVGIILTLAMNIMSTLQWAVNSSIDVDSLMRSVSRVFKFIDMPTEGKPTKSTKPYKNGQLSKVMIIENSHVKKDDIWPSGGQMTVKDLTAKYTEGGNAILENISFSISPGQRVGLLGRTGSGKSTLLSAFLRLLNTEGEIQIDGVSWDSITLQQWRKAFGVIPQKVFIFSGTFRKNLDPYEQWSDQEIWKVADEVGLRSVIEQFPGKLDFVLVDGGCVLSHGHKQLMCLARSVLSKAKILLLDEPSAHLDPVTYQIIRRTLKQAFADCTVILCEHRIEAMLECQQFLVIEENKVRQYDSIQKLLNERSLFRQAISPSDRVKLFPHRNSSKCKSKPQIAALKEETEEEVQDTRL

EC50 | SMILES
< 10 µM | O=C(Nc1ccccc1-c1ccoc1)c1c[nH]c2ccccc2c1=O [Compound 123, N-[2-(3-furyl)phenyl]-4-oxo-1H-quinoline-3-carboxamide]
< 10 µM | CCOC(=O)c1cc(NC(=O)c2c[nH]c3ccccc3c2=O)cc2[nH]ccc12 [Compound 145, 6-[(4-oxo-1H-quinolin-3-yl)carbonylamino]-1H-indole-4-carboxylic acid ethyl ester]

same assay, conditions: Table 3; assay not given; read-out: % Activity (% Efficacy, relative efficacy)

SMILES | Emax
O=C(Nc1ccccc1-c1ccoc1)c1c[nH]c2ccccc2c1=O [Compound 123, N-[2-(3-furyl)phenyl]-4-oxo-1H-quinoline-3-carboxamide] | 25 to 100%
O=C(Nc1cccc2ccccc12)c1c[nH]c2ccccc2c1=O [Compound 350, N-(1-naphthyl)-4-oxo-1H-quinoline-3-carboxamide] | 25 to 100%
CC(C)(C)CC(=O)Nc1ccc(C(C)(C)C)c(NC(=O)c2c[nH]c3ccccc3c2=O)c1 [Compound 196, N-[5-(3,3-dimethylbutanoylamino)-2-tert-butyl-phenyl]-4-oxo-1H-quinoline-3-carboxamide] | 25 to 100%
O=C(Nc1ccc(-c2ccccc2)cc1)c1c[nH]c2ccccc2c1=O [Compound 397, 4-oxo-N-(4-phenylphenyl)-1H-quinoline-3-carboxamide] | 25 to 100%
O=C(Nc1ccc(OC(F)(F)F)c(N2CCCC2)c1)c1c[nH]c2ccccc2c1=O [Compound 579, 4-oxo-N-[3-pyrrolidin-1-yl-4-(trifluoromethoxy)phenyl]-1H-quinoline-3-carboxamide] | 25 to 100%
O=C(Nc1cc(Cl)ccc1F)c1c[nH]c2ccccc2c1=O [Compound 48, N-(5-chloro-2-fluoro-phenyl)-4-oxo-1H-quinoline-3-carboxamide] | 25 to 100%
O=C(Nc1ccc2c(c1)NCCCC2)c1c[nH]c2ccccc2c1=O [Compound 10, 1,4-dihydro-N-(2,3,4,5-tetrahydro-1H-benzo[b]azepin-8-yl)-4-oxoquinoline-3-carboxamide] | 25 to 100%
COc1cccc(-c2ccccc2NC(=O)c2c[nH]c3ccccc3c2=O)c1 [Compound 283, N-[2-(3-methoxyphenyl)phenyl]-4-oxo-1H-quinoline-3-carboxamide] | > 100%
O=C(Nc1ccc(N2CCCC2)cc1C(F)(F)F)c1c[nH]c2ccccc2c1=O [Compound 658, 4-oxo-N-[4-pyrrolidin-1-yl-2-(trifluoromethyl)phenyl]-1H-quinoline-3-carboxamide] | 25 to 100%
O=C(Nc1ccccc1Oc1ncc(C(F)(F)F)cc1Cl)c1c[nH]c2ccccc2c1=O [Compound 42, N-[2-[[3-chloro-5-(trifluoromethyl)-2-pyridyl]oxy]phenyl]-4-oxo-1H-quinoline-3-carboxamide] | 25 to 100%
CC(C)(C)OC(=O)N1CCc2c(cccc2NC(=O)c2c[nH]c3ccccc3c2=O)C1 [Compound 427, 5-[(4-oxo-1H-quinolin-3-yl)carbonylamino]-1,2,3,4-tetrahydroisoquinoline-2-carboxylic acid tert-butyl ester] | 25 to 100%

Second part, the molecule after the results:

Emax | SMILES
25 to 100% | O=C(Nc1ccc(C(F)(F)F)c(O)c1)c1c[nH]c2ccccc2c1=O [Compound 506, N-[3-hydroxy-4-(trifluoromethyl)phenyl]-4-oxo-1H-quinoline-3-carboxamide]
25 to 100% | COc1cc(NC(=O)c2c[nH]c3ccccc3c2=O)cc(C(F)(F)F)c1 [Compound 691, N-[3-methoxy-5-(trifluoromethyl)phenyl]-4-oxo-1H-quinoline-3-carboxamide]
25 to 100% | CCOC(=O)NCC(C)(C)c1ccc(NC(=O)c2c[nH]c3ccccc3c2=O)cc1 [Compound 119, [2-methyl-2-[4-[(4-oxo-1H-quinolin-3-yl)carbonylamino]phenyl]-propyl]aminoformic acid ethyl ester]
25 to 100% | CCOC(=O)c1cc(NC(=O)c2c[nH]c3ccccc3c2=O)cc2[nH]ccc12 [Compound 145, 6-[(4-oxo-1H-quinolin-3-yl)carbonylamino]-1H-indole-4-carboxylic acid ethyl ester]
< 25% | NC(=O)c1cccc(NC(=O)c2c[nH]c3ccccc3c2=O)c1 [Compound 179, N-(3-carbamoylphenyl)-4-oxo-1H-quinoline-3-carboxamide]
25 to 100% | CCCc1ccc(NC(=O)c2c[nH]c3ccccc3c2=O)cc1NC(=O)OC [Compound 221, [5-[(4-oxo-1H-quinolin-3-yl)carbonylamino]-2-propyl-phenyl]aminoformic acid methyl ester]
